Source: patent US9617276B2, “Compounds and methods for treating AIDS and HIV infections” (priority 2009, dated 2017)
Like-named read-outs stand apart in the source and are kept apart here.

Legend:
HIV-1NL4-3 = test: p24 Gag inhibition in MT-4 cells, HIV-1NL4-3; assay type: cell-based
Protocol: All assays were performed in duplicate or triplicate. […] All assays were performed in duplicate or triplicate.

HIV-1APV5μM = test: microbe, parasite or virus in culture; assay type: cell-based; conditions: for EC50: Human immunodeficiency virus 1, MT4, read-out: EC50 (μM), HIV-1APV5 μM; for n-fold change in EC50, HIV-1APV5 μM: compared to wild-type HIV-1NL4-3
Protocol: (§1) The susceptibility of HIV-1LAI and primary HIV-1 isolates to various drugs were determined as described previously (Koh et al. 2003 Antimicrob Agents Chemother 47:3123-9). Briefly, MT-2 cells (2×10^4/ml) were exposed to 100 50% tissue culture infectious doses (TCID50S) of HIV-1LAI, in the presence or absence of various concentrations of drugs in 96-well microculture plates and were incubated at 37° C. for 7 days. After 100 μl of the medium was removed from each well, 3-(4,5-dimetylthiazol-2-yl)-2,5-diphenyltetrazolium bromide (MTT) solution (10 μl, 7.5 mg/ml in phosphate-buffered saline) was added to each well in the plate, followed by incubation at 37° C. for 3 h. […] All assays were performed in duplicate or triplicate. To determine the susceptibility of primary HIV-1 isolates to drugs, phytohemagglutinin-activated peripheral blood mononuclear cells (PHA-PBMCs; 106/ml) were exposed to 50 TCID50S of each. The target cells were exposed to HIV-1104pre or drug-resistant HIV-1 in the presence or absence of various concentrations of drugs and were incubated for 7 days. Upon the conclusion of the culture, the amounts of p24 Gag protein in the supernatants were determined using a fully automated chemiluminescent enzyme immunoassay system (Lumipulse F; Fujirebio Inc., Tokyo, Japan) (Maeda et al. 2001 J Biol Chem 276:35194-200). To determine the drug susceptibility of certain laboratory HIV-1 strains, MT-4 cells were used as target cells. In brief, MT-4 cells (10^5/ml) were exposed to 100 TCID50S of drug-resistant HIV-1 strains in the presence or absence of various concentrations of drugs and on day 7 of culture, the supernatant was harvested and the amounts of p24 Gag protein were determined. […] All assays were performed in duplicate or triplicate.
(§2) Numbers in parentheses represent n-fold changes in EC50s for each isolate compared to the EC50s for wild-type HIV-1NL4-3.

HIV-1AZV5μM = test: microbe, parasite or virus in culture; assay type: cell-based; conditions: for EC50: Human immunodeficiency virus 1, MT4, read-out: EC50 (μM), HIV-1AZV5 μM; for n-fold change in EC50, HIV-1AZV5 μM: compared to wild-type HIV-1NL4-3
Protocol: as §1, §2

HIV-1LPV5μM = test: microbe, parasite or virus in culture; assay type: cell-based; conditions: for EC50: Human immunodeficiency virus 1, MT4, read-out: EC50 (μM), HIV-1LPV5 μM; for n-fold change in EC50, HIV-1LPV5 μM: compared to wild-type HIV-1NL4-3
Protocol: as §1, §2

HIV-1NFV5μM = test: microbe, parasite or virus in culture; assay type: cell-based; conditions: for EC50: Human immunodeficiency virus 1, MT4, read-out: EC50 (μM), HIV-1NPV5 μM; for n-fold change in EC50, HIV-1NPV5 μM: compared to wild-type HIV-1NL4-3
Protocol: as §1, §2

HIV-1SQV5μM = test: microbe, parasite or virus in culture; assay type: cell-based; conditions: for EC50: Human immunodeficiency virus 1, MT4, read-out: EC50 (μM), HIV-1SQV5 μM; for n-fold change in EC50, HIV-1SQV5 μM: compared to wild-type HIV-1NL4-3
Protocol: as §1, §2

HIV-1MDR/JSL = test: microbe, parasite or virus in culture; assay type: cell-based; conditions: for EC50: Human immunodeficiency virus 1, read-out: EC50 (μM), HIV-1MDR/JSL (NSI); for n-fold change of EC50, HIV-1MDR/JSL: compared to wild-type HIV-1ERS104pre
Protocol: as §1
(§3) These clinical strains contained 9 to 14 amino acid substitutions in the protease-encoding region, which have reportedly been associated with HIV-1 resistance to various PIs.
(§4) Amino acid substitutions identified in the protease-encoding region compared to the consensus type B sequence cited from the Los Alamos database include L63P in HIV-1ERS104pre; L10I, K14R, L33I, M36I, M46I, F53I, K55R, I62V, L63P, A71V, G73S, V82A, L90M, and I93L in HIV-1MDR/B; L10I, I15V, K20R, L24I, M36I, M46L, I54V, I62V, L63P, K70Q, V82A, and L89M in HIV-1MDR/C; L10I, V11I, T12E, I15V, L19I, R41K, M46L, L63P, A71T, V82A, and L90M in HIV-1MDR/G; L10I, K14R, R41K, M46L, I54V, L63P, A71V, V82A, L90M, I93L in HIV-1MDR/TM; L10I, K43T, M46L, I54V, L63P, A71V, V82A, L90M, and Q92K in HIV-1MDR/MM; L10I, L24I, I33F, E35D, M36I, N37S, M46L, I54V, R57K, I62V, L63P, A71V, G73S, and V82A in HIV-1MDR/JSL. HIV-1ERS104pre served as a source of wild-type HIV-1. EC50s were determined by using PHA-PBMs as target cells, and inhibition of p24 Gag protein production by each drug was used as an end point. Numbers in parentheses represent n-fold changes of EC50s for each isolate compared to EC50s for wild-type HIV-1ERS104pre.

HIV-1MDR/MM = test: microbe, parasite or virus in culture; assay type: cell-based; conditions: for EC50: Human immunodeficiency virus 1, read-out: EC50 (μM), HIV-1MDR/MM (NSI); for n-fold change of EC50, HIV-1MDR/MM: compared to wild-type HIV-1ERS104pre
Protocol: as §1, §3, §4

HIV-1396-1μM = test: microbe, parasite or virus in culture; assay type: cell-based, HIV-1; conditions: for EC50: Human immunodeficiency virus 1, MT4, read-out: EC50 (μM), HIV-1396-1 μM; for n-fold change in EC50, HIV-1396-1 μM: compared to wild-type HIV-1NL4-3
Protocol: Briefly, MT-2 cells (2×10^4/ml) were exposed to 100 50% tissue culture infectious doses (TCID50S) of HIV-1LAI, in the presence or absence of various concentrations of drugs in 96-well microculture plates and were incubated at 37° C. for 7 days. After 100 μl of the medium was removed from each well, 3-(4,5-dimetylthiazol-2-yl)-2,5-diphenyltetrazolium bromide (MTT) solution (10 μl, 7.5 mg/ml in phosphate-buffered saline) was added to each well in the plate, followed by incubation at 37° C. for 3 h. […] All assays were performed in duplicate or triplicate. […] To determine the drug susceptibility of certain laboratory HIV-1 strains, MT-4 cells were used as target cells. In brief, MT-4 cells (10^5/ml) were exposed to 100 TCID50S of drug-resistant HIV-1 strains in the presence or absence of various concentrations of drugs and on day 7 of culture, the supernatant was harvested and the amounts of p24 Gag protein were determined. […] All assays were performed in duplicate or triplicate.
as §2

[1] = Human immunodeficiency virus 1, MT4, Table 7, mean ± 1 SD, read-out: EC50 (μM), HIV-1NL4-3
[2] = Human immunodeficiency virus 1, MT4, Table 9, mean ± 1 SD, read-out: EC50 (μM), HIV-1NL4-3
[3] = Human immunodeficiency virus 1, MT4, read-out: EC50 (μM), HIV-1NL4-3, Table 7, mean ± 1 SD
[4] = Human immunodeficiency virus 1, MT4, read-out: EC50 (μM), HIV-1NL4-3, Table 9, mean ± 1 SD

SMILES | EC50 (HIV-1NL4-3; [1]) [µM] | EC50 (HIV-1NL4-3; [2]) [µM] | EC50 (HIV-1APV5μM) [µM] | EC50 (HIV-1AZV5μM) [µM] | EC50 (HIV-1LPV5μM) [µM] | EC50 (HIV-1NFV5μM) [µM] | EC50 (HIV-1SQV5μM) [µM] | EC50 (HIV-1MDR/JSL) [µM] | EC50 (HIV-1MDR/MM) [µM] | EC50 (HIV-1396-1μM) [µM] | EC50 (HIV-1NL4-3; [3]) [µM] | EC50 (HIV-1NL4-3; [4]) [µM] | n-fold change in EC50, HIV-1APV5 μM (HIV-1APV5μM) | n-fold change in EC50, HIV-1AZV5 μM (HIV-1AZV5μM) | n-fold change in EC50, HIV-1LPV5 μM (HIV-1LPV5μM) | n-fold change in EC50, HIV-1NPV5 μM (HIV-1NFV5μM) | n-fold change in EC50, HIV-1SQV5 μM (HIV-1SQV5μM) | n-fold change of EC50, HIV-1MDR/JSL (HIV-1MDR/JSL) | n-fold change of EC50, HIV-1MDR/MM (HIV-1MDR/MM) | n-fold change in EC50, HIV-1396-1 μM (HIV-1396-1μM)
CC(C)CN(C[C@@H](O)[C@H](Cc1ccccc1)NC(=O)O[C@H]1CCOC1)S(=O)(=O)c1ccc(N)cc1 [APV, Amprenavir] | 0.034 ± 0.001 | 0.032 ± 0.001 | > 1 | 0.28 ± 0.06 | 0.26 ± 0.07 | 0.028 ± 0.005 | 0.18 ± 0.1 | 0.62 ± 0.02 | 0.21 ± 0.222 | 0.35 ± 0.0002 |  |  |  |  |  |  |  |  |  | 
COC(=O)N[C@H](C(=O)N[C@@H](Cc1ccccc1)[C@@H](O)CN(Cc1ccc(-c2ccccn2)cc1)NC(=O)[C@@H](NC(=O)OC)C(C)(C)C)C(C)(C)C [AZV, Atazanavir] |  |  | 0.006 ± 0.002 | > 1 | 0.036 ± 0.001 | 0.027 ± 0.005 | 0.21 ± 0.065 | 0.43 ± 0.036 | 0.18 ± 0.021 | 0.024 ± 0.002 | 0.004 ± 0.0004 | 0.0032 ± 0.0001 | (2) | > 250 | (9) | (7) | (53) | (215) | (39) | (8)
COc1ccc2c(c1)OCCCC=CCCCCN(CC(O)C(Cc1ccccc1)NC(=O)OC1COC3OCCC13)S2(=O)=O (stereo not shown) [Compound 14b] |  |  | > 1 | 0.03 ± 0.006 | 0.35 ± 0.019 | 0.041 ± 0.006 | 0.046 ± 0.021 | 0.21 ± 0.032 | 0.055 ± 0.025 | 0.25 ± 0.05 | 0.009 ± 0.0006 | 0.006 ± 0.005 | > 111 | (3) | (39) | (5) | (5) |  | (8) | (42)
COc1ccc2c(c1)OCCC=CCCCCN(CC(O)C(Cc1ccccc1)NC(=O)OC1COC3OCCC13)S2(=O)=O (stereo not shown) [Compound 14c] |  |  | > 1 | 0.023 ± 0.005 | 0.035 ± 0.005 | 0.04 ± 0.017 | 0.02 ± 0.009 | 0.073 ± 0.07 | 0.033 ± 0.01 | 0.073 ± 0.011 | 0.005 ± 0.001 | 0.004 ± 0.001 |  |  |  |  |  |  |  | 
Cc1cccc(C)c1OCC(=O)N[C@@H](Cc1ccccc1)[C@@H](O)C[C@H](Cc1ccccc1)NC(=O)[C@H](C(C)C)N1CCCNC1=O [LPV, lopinavir] | 0.046 ± 0.025 | 0.035 ± 0.004 | > 1 | > 1 | > 1 | 0.037 ± 0.004 | 0.12 ± 0.02 | > 1 | > 1 | 0.28 ± 0.05 |  |  | > 22 | > 22 | > 22 | (1) | (2) | > 29 | > 29 | (6)
CCC[C@@]1(CCc2ccccc2)CC(O)=C([C@H](CC)c2cccc(NS(=O)(=O)c3ccc(C(F)(F)F)cn3)c2)C(=O)O1 [TPV, Tipranavir] |  |  | 0.22 ± 0.089 | 0.41 ± 0.047 | 0.31 ± 0.03 | 0.039 ± 0.041 | 0.022 ± 0.009 | 0.23 ± 0.049 | 0.36 ± 0.06 | 0.042 ± 0.002 | 0.32 ± 0.07 | 0.29 ± 0.05 | (0.7) | (1) | (1) | (0.1) | (0.1) | (2) | (3) | (0.1)
